# Laboratory results: patent publication US20230391808A1, “PHOSPHAPHENALENE-GOLD(I) COMPLEXES AS CHEMOTHERAPEUTIC AGENTS AGAINST GLIOBLASTOMA” (priority 2020, published 2023)
# Read-outs that look alike come from different tables or passages of the source.
# How the values were obtained:
# thioredoxin reductase = thioredoxin reductase (Homo sapiens, UniProt Q16881); conditions: Jortzik E. et al. 2014; cited from earlier work
# [1] = molecular target: human glutathione reductase (Homo sapiens, UniProt P00390); conditions: Jortzik E. et al. 2014; cited from earlier work
# Solubility in solvents = format: physicochemical
# Excerpt: Importantly, all compounds 1-4 readily dissolved in DMSO/H2O mixtures 1:9. Compound 1 was the least soluble and started to precipitate at concentrations higher than 0.1 M.
# [2] = Stability in dimethylsulfoxide/H2O solutions; format: physicochemical; conditions: over weeks
# [3] = tested on: NCH82, NCH89, NCH125, and NCH210 cells; experiment: Wound-healing (scratch) assay, tumor cell migration; format: cell-based, human
# Procedure: Besides an increased tumor cell proliferation, a highly invasive cell growth drives malignancy of GBM. To obtain a more complete picture of the anti-cancer action of the compounds according to the invention, the effects of compound 4 on GBM cell invasion were investigated using a conventional wound-healing assay with NCH82, NCH89, NCH125, and NCH210 cells.
# The results of the wound-healing assay are depicted in FIG. 2. […] The cells were imaged at 0 hours (t0) and at 24 hours (t1) after introducing the scrape. Cell migration was assessed by measuring cell-free areas at t0 and their reduction at t1.
# To assess the effect of the drugs on cell migration in vitro cells were seeded in 6-well plates (5×10^5/Well) and left to attach. On the next day the cell monolayer was scraped in a straight line to create a “scratch” with a p200 pipet tip. […] Phase contrast images were acquired at 0 h and after 12 h of exposure to the respective drug concentration using a BX50 microscope with a SC30 camera (both Olympus, Tokyo, Japan). The cell-free areas at both time points were quantified and compared using the imaging software cellSens (Olympus, Tokyo, Japan).
# NCH82 [4] = experiment: Annexin V apoptosis assay (flow cytometry), NCH82; format: cell-based, human; conditions: drug concentration of 2 μM, 48 hour-incubation (FIG. 3B)
# Procedure: (§1) Thus, after a 48 hour-incubation period with different concentrations of Compound 4, the conventional GBM cells and GSCs were analyzed by flow cytometry. Annexin V and propidium iodide (PI) were used as indicators for apoptosis/necrosis. In line with the obtained IC50 values listed in Table 2, NCH82 cells appeared to be the most sensitive GBM cell line.
# To quantitate the extent of apoptosis and necrosis, either annexin V staining combined with DAPI or double labeling of cells with annexin V and propidium iodide (PI) was used. The double labeling allows the distinction between apoptotic (annexin V^pos/DAPI^neg or annexin V^pos/PI^neg) and necrotic (annexin V^pos/DAPI^pos or annexin V^pos/PI^pos) cells. […]
# After treatment supernatant containing apoptotic and necrotic cells was collected, cells were harvested, washed, and up to 1×10^6 cells were incubated with FITC-conjugated annexin V antibody diluted in 1:1000 DAPI solution following manufactures instructions (#51-65874X, BD Bioscienes, Franklin Lakes, USA) or incubated with FITC-conjugated annexin V antibody and PI for 15 min following manufacturer instructions (#51-65974X, BD Biosciences, Franklin Lakes, USA). Cells were acquired by flow cytometry using a BD LSRII flow cytometer (BD Bioscienes, Franklin Lakes, USA) and analyzed by FlowJo Software v7.6.5 (TreeStar, Ahland, USA).
# NCH89 [5] = experiment: Annexin V apoptosis assay (flow cytometry), NCH89; format: cell-based, human
# Procedure: (§2) It was further analyzed whether Compound 4 could sensitize GBM cells (NCH82 and NCH89) and GSCs (NCH421k, NCH644, and NCH660h) to apoptosis. The increase of apoptotic/necrotic cells with increasing concentrations of Compound 4 is illustrated in FIG. 3.
# as §1
# (§3) To quantitate the extent of apoptosis and necrosis, either annexin V staining combined with DAPI or double labeling of cells with annexin V and propidium iodide (PI) was used. The double labeling allows the distinction between apoptotic (annexin V^pos/DAPI^neg or annexin V^pos/PI^neg) and necrotic (annexin V^pos/DAPI^pos or annexin V^pos/PI^pos) cells. Cells were seeded in a 6-well plate (2.5×10^5/well) and left to attach overnight. Medium was replaced by fresh medium containing defined drug concentrations or compound solvent DMSO (untreated control) and incubated for 24 h. As positive control cells were treated with 1 μM of the apoptosis-inducing reagent staurosporin (#9953, Cell Signaling Technology, Danvas, USA). […]
# [6] = tested on: GSCs (NCH421k, NCH644, and NCH660h); experiment: Annexin V apoptosis assay (flow cytometry), GSCs; format: cell-based, human; conditions: 48 hour-incubation (FIG. 3C)
# Procedure: as §2, §1, §3
# NCH82 [7] = experiment: Crystal violet proliferation assay, NCH82; format: cell-based, human; conditions: glioblastoma cell line, 48 h exposure, mean of three biological replicates ± standard deviation
# NCH89 [8] = experiment: Crystal violet proliferation assay, NCH89; format: cell-based, human; conditions: glioblastoma cell line, 48 h exposure, mean of three biological replicates ± standard deviation
# NCH149 = experiment: Crystal violet proliferation assay, NCH149; format: cell-based, human; conditions: glioblastoma cell line, 48 h exposure, mean of three biological replicates ± standard deviation
# Procedure: In order to investigate the role of the fused phosphaphenalene ring in the bio-activity of the drug, the ability of Compound 5 to inhibit cell proliferation in the glioblastoma cell lines NCH82, NCH89 and NCH149 was examined. For this purpose, cells were incubated with increasing concentrations of Compound 5 and cell proliferation was evaluated by crystal violet assay.
# The effect of different compounds on cell growth was evaluated by the crystal violet method as described earlier (J. P. Rigalli et al., Cancer Lett. 2016, 376, 165-172). Briefly, cells were seeded in 96-well plates (10,000 cells/well). After 24 h cell culture medium was replaced by fresh compound-containing medium (ten different concentrations (0.01 to 200 μM μM)). After 48 h of exposure extent of cell proliferation inhibition was determined by crystal violet staining of surviving cells. Therefore, cells were washed and stained with 0.5% crystal violet solution (2.5 g in 100 ml methanol, diluted with 400 ml aqua bidest) for 15 min, rinsed and dried overnight.
# Next, crystal violet was solubilized in methanol and absorbance was measured at 555 nm. The proliferative index was calculated as crystal violet absorption intensity as percentage relative to baseline (no cells) as described before (T. Peters et al., Naunyn Schmiedebergs Arch Pharmacol. 2006, 372, 291-299.) Cell survival plotted against the decimal logarithm of drug concentration in μM (c (of compound x) in μM) and fitted to a sigmoidal dose-response curve using Graph Pad Prism 7.02 (GraphPad Software, San Diego, USA).
# [9] = Stability under controlled thermodynamic conditions upon repetitive cycles of illumination; format: physicochemical; conditions: data not shown
# NCH82 [10] = conditions: Deponte M. et al. 2005; read-out: IC50, proliferation of NCH82; cited from earlier work
# NCH89 [11] = conditions: Deponte M. et al. 2005; read-out: IC50, proliferation of NCH89; cited from earlier work
# Sequence of thioredoxin reductase (Q16881 151-649 limits assumed): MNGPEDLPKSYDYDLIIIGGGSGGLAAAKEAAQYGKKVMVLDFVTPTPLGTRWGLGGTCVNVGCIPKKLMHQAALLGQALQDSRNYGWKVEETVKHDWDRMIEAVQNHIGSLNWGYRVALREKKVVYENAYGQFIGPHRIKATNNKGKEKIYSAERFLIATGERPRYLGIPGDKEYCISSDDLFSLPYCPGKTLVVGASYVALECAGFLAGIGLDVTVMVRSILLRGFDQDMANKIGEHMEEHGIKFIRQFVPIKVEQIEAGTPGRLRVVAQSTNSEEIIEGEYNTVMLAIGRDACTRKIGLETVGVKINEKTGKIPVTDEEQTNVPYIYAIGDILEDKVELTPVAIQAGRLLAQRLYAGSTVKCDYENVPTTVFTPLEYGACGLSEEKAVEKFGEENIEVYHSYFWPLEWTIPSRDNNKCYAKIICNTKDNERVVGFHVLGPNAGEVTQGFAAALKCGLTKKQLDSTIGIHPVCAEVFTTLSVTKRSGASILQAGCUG
# Sequence of human glutathione reductase (P00390 44-522): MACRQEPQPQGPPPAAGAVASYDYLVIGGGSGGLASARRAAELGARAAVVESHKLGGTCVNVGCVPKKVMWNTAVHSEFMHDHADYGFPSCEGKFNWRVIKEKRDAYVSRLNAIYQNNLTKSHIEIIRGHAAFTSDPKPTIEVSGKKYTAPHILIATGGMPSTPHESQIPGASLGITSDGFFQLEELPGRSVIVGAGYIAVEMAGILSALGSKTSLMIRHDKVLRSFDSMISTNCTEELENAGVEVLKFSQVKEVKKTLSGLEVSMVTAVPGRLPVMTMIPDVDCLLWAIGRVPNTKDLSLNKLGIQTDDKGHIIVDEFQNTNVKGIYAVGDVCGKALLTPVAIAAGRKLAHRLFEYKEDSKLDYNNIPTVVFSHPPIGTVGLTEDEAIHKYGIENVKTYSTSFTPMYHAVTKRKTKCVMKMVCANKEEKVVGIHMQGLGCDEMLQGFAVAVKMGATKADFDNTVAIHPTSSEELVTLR
compound,measurement,setting,value
1-phenyl-bis(2-pyridyl)phosphole gold chloride thio-β-d-glucose tetraacetate [GoPI-sugar],IC50,thioredoxin reductase,4.3 nM
same,IC50,[1],88.5 nM
[Cl][Au][PH]1(c2ccccc2)c2cscc2-c2cccc3cccc1c23 [Compound 1],concentration above which precipitation starts,Solubility in solvents; DMSO/H2O mixtures 1:9,higher than 0.1 M
same,stability in dimethylsulfoxide/H2O solutions,[2],high stability
CC(=O)OCC1OC([S][Au][PH]2(c3ccccc3)c3cscc3-c3cccc4cccc2c34)C(OC(C)=O)C(OC(C)=O)C1OC(C)=O (stereo not drawn) [Compound 4],wound closure compared to untreated control cells,"[3]; at least the corresponding IC50 concentrations, 24 hours",significantly decreased wound closure
same,wound closure,"[3]; concentrations c(IC50)/2 and c(IC50)/10, 24 hours",not significantly affected
same,"induction of apoptosis, NCH82",NCH82 [4],induced apoptosis in a high percentage of cells
same,"apoptotic/necrotic cells, NCH89","NCH89 [5]; 1 μM, 2 μM, and 10 μM for 24 hours (FIG. 3A)",dose-dependent increase of apoptotic/necrotic cells
same,"cell death, NCH89","NCH89 [5]; concentration of 2 μM, 48 hour-incubation (FIG. 3B)",no cell death
same,"induction of apoptosis, GSCs",[6],induction of apoptosis could be demonstrated but to a lesser extent
same,"solubility in methanol, ethanol, DCM, CHCl3, Et2O and acetone",Solubility in solvents,soluble
same,solubility in pentane and hexane,Solubility in solvents,insoluble
Cn1ccc2c1-c1cccc3cccc(c13)[P+]2([Au-][Cl])c1ccccc1 (stereo not drawn) [Compound 5],IC50,NCH82 [7],8.1 µM
same,IC50,NCH89 [8],15.1 µM
same,IC50,NCH149,8.87 µM
CC(=O)OC[C@H]1O[C@@H]([S][Au-][P+]2(c3ccccc3)c3ccn(S(=O)(=O)c4ccccc4)c3-c3cccc4cccc2c34)[C@H](OC(C)=O)[C@@H](OC(C)=O)[C@@H]1OC(C)=O (stereo partly drawn) [Compound 8],IC50,NCH82 [7],1.37 µM
same,IC50,NCH89 [8],4.49 µM
same,IC50,NCH149,2.85 µM
same,stability upon repetitive cycles of illumination,[9],very high stability
"[Cl][Au][PH]1(c2ccccc2)C(c2ccccn2)=CC=C1c1ccccn1 [GoPI, [1-phenyl-2,5-di(2-pyridyl)phosphole]AuCl]",IC50,NCH82 [10],12.5 ± 0.8 µM
same,IC50,NCH89 [11],10.8 ± 0.8 µM
